Experimental data from patent US20050282818A1, “Ubiquitin ligase inhibitors” (Rigel Pharmaceuticals, Inc., priority 2004, published 2005).
Like-named read-outs stand apart in the source and are kept apart here.

What was measured:
TRAF6/Uev1A/Ubc13 = molecular target: T1, TRAF6/Uev1A/Ubc13 (Homo sapiens, UniProt Q9Y4K3); assay: TRAF6/Uev1A/Ubc13 plate-based ubiquitin ligase assay; assay type: biochemical
T1 sequence (Q9Y4K3 1-522): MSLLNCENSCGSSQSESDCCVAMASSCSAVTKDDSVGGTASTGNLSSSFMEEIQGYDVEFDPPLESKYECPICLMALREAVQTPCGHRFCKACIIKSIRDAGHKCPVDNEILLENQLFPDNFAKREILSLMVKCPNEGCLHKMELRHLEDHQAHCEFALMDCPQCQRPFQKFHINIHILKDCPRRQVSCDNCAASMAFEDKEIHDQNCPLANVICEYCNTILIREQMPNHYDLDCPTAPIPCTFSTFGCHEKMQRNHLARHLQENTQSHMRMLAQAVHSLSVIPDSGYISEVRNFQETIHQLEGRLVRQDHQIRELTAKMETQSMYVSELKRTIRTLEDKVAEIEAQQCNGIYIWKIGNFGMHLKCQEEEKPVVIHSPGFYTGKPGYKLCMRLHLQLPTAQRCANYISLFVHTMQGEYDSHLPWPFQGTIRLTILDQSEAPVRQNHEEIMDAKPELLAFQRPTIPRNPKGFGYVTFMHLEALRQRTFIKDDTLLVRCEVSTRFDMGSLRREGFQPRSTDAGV
Procedure, shortened: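 Ligase activity was read as luminescence from anti-Flag/HRP detection of Flag-ubiquitin bound to casein-blocked Ni-plates alongside His-ubiquitin after a 1 h room-temperature reaction. Buffer: 62.5 mM Tris pH 7.5, 6.25 mM MgCl2, 1.0 mM DTT, 2 μM ATP; E1, Uev1a/Ubc13 and TRAF6 added last to start. IC50s derived across compound concentrations.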

APC11/APC2 = APC11/APC2 (Homo sapiens, UniProt Q9NYG5+Q9UJX6); assay: APC-11/APC-2 ligase assay (APC auto ubiquitination); assay type: biochemical; settings: APC assay
Protocol: For the assays described below, the TRAF6/Uev1A/UBC13 assay is the biochemical plate-based assay of TRAF6 ligase activity using Ubc13 as the E2 enzyme. The gel-based assay is the biochemical solution-based TRAF6 ligase assay (by SDS-PAGE and Western blot) to confirm the plate-based ELISA assay. The APC assay is an assay which is another E3 ligase (APC2/APC11) biochemical assay.
E3 (His APC11/APC2— “APC”) auto ubiquitination was measured as described in U.S. patent application Ser. No. 09/826,312 (Publication No. U.S. 2002 0042083 A1), which is incorporated by reference in its entirety. Details of the protocol are described below. Activity in the presence of the compound was determined relative to a parallel control in which only DMSO was added. Values of the IC50 were typically determined using 6 or 8 different concentrations of the compound, although as few as 2 concentrations may be used to approximate the IC50 value.
Nickel coated 96 well plates (Pierce 15242) were blocked for 1 hour with 100 μl of blocking buffer at room temperature. The plates were washed 4 times with 225 μl of 1 […]PBS and 80 μl of the reaction buffer were added that contained 100 ng/well of Flag ubiquitin. To this, 10 μl of the test compound diluted in DMSO were added. After the test compound was added, 10 μl of E1 (human), E2 (Ubch5c), and APC in Protein Buffer was added to obtain a final concentration of 5 ng/well of E1, 20 ng/well of E2 and 100 ng/well of APC. The plates were shaken for 10 minutes and incubated at room temperature for 1 hour. After incubation, the plates were washed 4 times with 225 μl of 1×PBS and 100 μl/well of Antibody Mix were added to each well. The plates were incubated at room temperature for another hour after which they were washed 4 times with 225 μl of 1×PBS and 100 μl/well of Lumino substrate were added to each well. The luminescence was measured by using a BMG luminescence microplate reader. The Blocking Buffer (1% Casein in 1×PBS) was stored at 4° C. until use.
The reaction buffer consisted of 62.5 mM Tris pH 7.6 (Trizma Base—Sigma T 8524), 3 mM MgCl2 (Magnesium Chloride—Sigma M 2393), 1 mM DTT (Sigma D 9779), 2.5 mM ATP (Roche Boehringer Mann Corp. 635 316), 100 ng/well of Flag ubiquitin, 0.1% BSA (Sigma A 7906), and 0.05% Tween 20 (Sigma P 7949).
The Protein Buffer consisted of 20 mM Tris pH 7.6, 10% glycerol (Sigma G 5516) and 1 mM DTT.
The antibody mix consisted of 0.25% BSA (Sigma A 7906) in 1×PBS, 1/50,000 anti Flag (Sigma F 3165), 1/100,000 of anti Mouse IgG HRP (Jackson Imrunoresearch #115 035 146).
The substrate mix consisted of SuperSignal Substrate from Pierce (catalog number 37070ZZ) and was prepared by mixing 100 ml of the peroxide solution, 100 ml of the enhancer solution and 100 ml of Milli Q® water.

[1] = tested on: ICAM-1 expression in A549 cells; assay: ICAM assay (IL-1 induced ICAM-1/CD54 expression in A549 cells); assay type: cell-based, human
Source text: The expression of intercellular adhesion molecule (ICAM)-1 in endothelial cells is pivotal in supporting lymphocyte migration across the vascular endothelium. TNF/IL-1 induces the NF-kB pathway in which NF-kB acts as a transcription factor and activation of NF-kB induces ICAM expression. IkB inhibits NF-KB by binding to it and retaining NF-kB in the cytoplasm. Upon cytokine stimulation, several signaling molecule including TRAF6, IKKs, and TAK1 are activated which lead to the phosphorylation of IkB. Phosphorylated IkB is then ubiquitinated by the SCF complex and degraded by proteasome, thereby releasing NF-kB to translocate into the nucleus. In the nucleus, NF-kB binds to DNA and activates transcription of various genes that are involved in inflammation, cell survival, and apoptosis. The ICAM assay is a primary assay for HTS as well as a cell based assay for TRAF6 inhibitors.
The following materials are used 96-well plates; F12K complete medium that includes 10% FBS and 1% P/S (penicillin/streptomycin); 1×PBS; 5 ug/ml IL-1, Human CD54 (CALTAG Laboratory, Cat#MHCD5400-4); anti-mouse-IgG (Jackson Lab, Cat#115-035 146); and A549 cells.
Procedure. 10,000 A549 cells/well were seeded in 100 μl F12K complete medium in a 96-well white plate. The seeded plate was incubate at 37° C. incubator in 5% CO2 overnight. After the overnight incubation, 4 μl of diluted test compound was added and incubated for 1 hour at 37° C. After the 1 hour incubation, 4 μl of 25 ng/ml IL-1 was added to each well and the cells were stimulated at 37° C. for 4 hours.
After stimulation, the cells were stained with CD54 (1:1000 diluted with medium) and anti-mouse IgG (1:1100 diluted with medium) for 1 hour. Subsequently, the medium was removed and each well was washed with 200 μl of PBS three times. Detection of activity was performed by addition of 100 μl/well of lumino substrate.

A549 cells = assay: Cell proliferation PAD assay, A549; assay type: cell-based; settings: 48 hours
Procedure, shortened: (§1)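 2,000 cells/well; compound added at 24 h (duplicate, 6.3-fold series, 10 mM stock, 500× dilution into wells); 48 h, 37 °C/5% CO2. Formamide fix, DAPI stain, image-based counts of live (proliferation), apoptotic, dead cells.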

H1299 cells = assay: Cell proliferation PAD assay, H1299; assay type: cell-based; settings: 48 hours
Procedure, shortened: as §1

[2] = Homo sapiens, 3pt, read-out: A549 3pt
[3] = Homo sapiens, NCI-H1299, 3pt, read-out: H1299 3pt
[4] = Homo sapiens, 6pt, read-out: A549 6pt
[5] = Homo sapiens, NCI-H1299, 6pt, read-out: H1299 6pt

Sequence of APC11/APC2 (Q9NYG5 whole entry): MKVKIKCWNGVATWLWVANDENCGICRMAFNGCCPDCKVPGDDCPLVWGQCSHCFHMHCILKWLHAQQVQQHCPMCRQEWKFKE
Sequence of APC11/APC2 (Q9UJX6 whole entry): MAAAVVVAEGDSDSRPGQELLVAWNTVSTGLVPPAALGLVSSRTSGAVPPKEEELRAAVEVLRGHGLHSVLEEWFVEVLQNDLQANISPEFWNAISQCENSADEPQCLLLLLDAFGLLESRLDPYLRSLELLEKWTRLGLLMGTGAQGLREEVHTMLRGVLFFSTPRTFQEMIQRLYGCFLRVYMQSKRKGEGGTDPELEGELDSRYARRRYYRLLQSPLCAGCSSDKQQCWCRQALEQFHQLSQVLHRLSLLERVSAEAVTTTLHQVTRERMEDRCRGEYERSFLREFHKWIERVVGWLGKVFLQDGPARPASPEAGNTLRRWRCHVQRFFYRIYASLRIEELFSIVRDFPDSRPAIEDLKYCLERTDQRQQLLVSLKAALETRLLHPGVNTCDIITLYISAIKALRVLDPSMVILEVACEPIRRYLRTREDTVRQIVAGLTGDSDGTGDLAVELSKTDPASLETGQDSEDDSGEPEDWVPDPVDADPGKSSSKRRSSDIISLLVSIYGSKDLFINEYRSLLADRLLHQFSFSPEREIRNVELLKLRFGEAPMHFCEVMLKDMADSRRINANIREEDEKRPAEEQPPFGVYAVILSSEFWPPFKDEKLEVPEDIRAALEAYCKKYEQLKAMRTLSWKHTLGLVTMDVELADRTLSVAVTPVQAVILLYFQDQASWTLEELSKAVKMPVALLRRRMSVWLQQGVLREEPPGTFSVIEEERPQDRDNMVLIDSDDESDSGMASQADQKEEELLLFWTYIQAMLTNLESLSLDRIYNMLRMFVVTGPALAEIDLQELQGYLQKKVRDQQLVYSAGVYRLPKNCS

IC50 (TRAF6/Uev1A/Ubc13) [µM]	IC50 (APC11/APC2) [µM]	IC50 ([1]; Homo sapiens, A549, ICAM assay) [µM]	SMILES	other results
1 to 20	1 to 20	–	O=c1[nH]c2ccccc2n1C1CCN(S(=O)(=O)c2ccc(Sc3cccc4cccnc34)c3nonc23)CC1 [compound 190, 1-(1-{[7-(quinolin-8-ylthio)-2,1,3-benzoxadiazol-4-yl]sulfonyl}piperidin-4-yl)-1,3-dihydro-2H-benzimidazol-2-one]	–
1 to 20	–	≥ 20	O=S(=O)(c1ccc(Sc2cccc3cccnc23)c2nonc12)N1CCN(c2ccccc2)CC1 [compound 217, 8-({7-[(4-phenylpiperazin-1-yl)sulfonyl]-2,1,3-benzoxadiazol-4-yl}thio)quinoline]	IC50 (A549 cells; [4]): 1 to 20 µM; IC50 (H1299 cells; [5]): 1 to 20 µM
1 to 20	–	≥ 20	O=S(=O)(c1c(Cl)ccc2nonc12)N1CCC(Oc2ccccc2C(F)(F)F)CC1 [compound 229, 5-chloro-4-({4-[2-(trifluoromethyl)phenoxy]piperidin-1-yl}sulfonyl)-2,1,3-benzoxadiazole]	IC50 (A549 cells; [4]): 1 to 20 µM; IC50 (H1299 cells; [5]): < 1 µM
≥ 20	–	≥ 20	O=S(=O)(c1c(Cl)ccc2nonc12)N1CCC(Oc2ncccn2)CC1 [compound 234]	IC50 (A549 cells; [2]): 1 to 20 µM; IC50 (H1299 cells; [3]): 1 to 20 µM
≥ 20	1 to 20	1 to 20	O=[N+]([O-])c1ccc(-c2cc(F)cc(F)c2)c2nonc12 [compound 308, 4-[(3,5-Difluoro)phenyl]-7-nitro-2,1,3-benzoxadiazole]	–
1 to 20	1 to 20	≥ 20	O=[N+]([O-])c1ccc(-c2ccc(C(F)(F)F)cc2C(F)(F)F)c2nonc12 [compound 312, 4-[2,4-Bis(trifluoromethyl)phenyl]-7-nitro-2,1,3-benzoxadiazole]	–

Continued, compound first:

SMILES	IC50 (TRAF6/Uev1A/Ubc13) [µM]	IC50 (APC11/APC2) [µM]	IC50 ([1]; Homo sapiens, A549, ICAM assay) [µM]	other results
O=[N+]([O-])c1ccc(N2CCN(c3cnccn3)CC2)c2nonc12 [compound 84]	1 to 20	1 to 20	–	–
O=[N+]([O-])c1ccc(Sc2cccc(Cl)c2)c2nonc12 [compound 149, 4-[(3-chlorophenyl)thio]-7-nitro-2,1,3-benzoxadiazole]	1 to 20	1 to 20	–	–
Cc1ccc(Sc2ccc([N+](=O)[O-])c3nonc23)cc1 [compound 157, 4-[(4-methylphenyl)thio]-7-nitro-2,1,3-benzoxadiazole]	1 to 20	1 to 20	–	–
N#Cc1cccnc1N1CCN(S(=O)(=O)c2c(Sc3cccc4cccnc34)ccc3nonc23)CC1 [compound 183, 2-(4-{[5-(quinolin-8-ylthio)-2,1,3-benzoxadiazol-4-yl]sulfonyl}piperazin-1-yl)nicotinonitrile]	1 to 20	1 to 20	–	–
CN1CCN(S(=O)(=O)c2ccc(Cl)c3nonc23)CC1 [compound 189, 4-chloro-7-[(4-methylpiperazin-1-yl)sulfonyl]-2,1,3-benzoxadiazole]	≥ 20	–	≥ 20	IC50 (A549 cells; [2]): 1 to 20 µM; IC50 (H1299 cells; [3]): 1 to 20 µM
O=S(=O)(c1ccc(Cl)c2nonc12)N1CCC(Oc2ncccn2)CC1 [compound 225, 4-chloro-7-{[4-(pyrimidin-2-yloxy)pipendin-1-yl]sulfonyl}-2,1,3-benzoxadiazole]	≥ 20	–	–	IC50 ([1]; ICAM assay): ≥ 20 µM; IC50 (A549 cells; 3pt, read-out: A549 3pt): 1 to 20 µM; IC50 (H1299 cells; 3pt, read-out: H1299 3pt): 1 to 20 µM
O=S(=O)(c1c(N2CCC(Oc3ncccn3)CC2)ccc2nonc12)N1CCC(Oc2ncccn2)CC1 [compound 236, 5-[4-(1,3-pyrimidin-2-yloxy)piperidin-1-yl]-4-{[4-(1,3-pyrimidin-2-yloxy)piperidin-1-yl]sulfonyl}-2,1,3-benzoxadiazole]	≥ 20	–	≥ 20	IC50 (A549 cells; [2]): 1 to 20 µM; IC50 (H1299 cells; [3]): 1 to 20 µM
O=[N+]([O-])c1ccc([S+]([O-])c2cccc3cccnc23)c2nonc12 (centres unmarked) [compound 291, 8-[(7-nitro-2,1,3-benzoxadiazol-4-yl)sulfinyl]quinoline]	1 to 20	–	≥ 20	IC50 (A549 cells; [4]): < 1 µM; IC50 (H1299 cells; [5]): < 1 µM
O=[N+]([O-])c1ccc(-c2ccc(C(F)(F)F)cc2)c2nonc12 [compound 311, 4-Nitro-7-[4-(trifluoromethyl)phenyl]-2,1,3-benzoxadiazole]	1 to 20	1 to 20	1 to 20	–
O=C1OC2(CCN(S(=O)(=O)c3ccc(Cl)c4nonc34)CC2)c2ccccc21 [compound 332, 1′-{[7-chloro-(2,1,3-benzoxadiazol-4-yl)]sulfonyl}-3H-spiro[2-benzofuran-1,4′-piperidin]-3-one]	≥ 20	1 to 20	≥ 20	–
O=S(=O)(c1ccc(Sc2cccc3ccccc23)c2nonc12)N1CCC2(CC1)OCc1ccccc12 [compound 334, 1′-{(7-[naphth-1-ylthio]-2,1,3-benzoxadiazol-4-yl)}sulfonyl-3H-spiro[2-benzofuran-1,4′-piperidine]]	≥ 20	≥ 20	1 to 20	–
